Test results from patent US12070452B2, “Compounds targeting HSP110 protein for cancer treatment” (INSERM (Institut National de la Santé et de la Recherche …, priority 2018, dated 2024).
“Also recorded” adds a separate entry of the source.

How the values were obtained:
human protein HSP110 = target: T1, human protein HSP110 (Homo sapiens, UniProt Q92598); test: HSP110 anti-aggregation function (luciferase substrate test); type: biochemical; settings: human HSP110 1.5 μM with firefly luciferase, 30 min at 42° C.; read-out: IC50 of HSP110 anti-aggregating activity
T1 construct: DNA coding the NBD-HSP110 (from human-HSP110)
Experimental: Anti-aggregation function of HSP110 was evaluated as described by O H et al (The Journal of biological chemistry 274, 15712-15718 (1999)). The human protein HSP110 (obtained as described above) at a concentration of 1.5 μM was incubated with firefly luciferase (from Sigma—from Photinus pyralis) in reaction buffer and heated in water bath for 30 min at 42° C.
Compounds of the present invention were added in reaction buffer to achieve the indicated concentrations and the final DMSO concentration was held constant at 1%. The heated reaction was diluted 10 times into buffer containing 60% of rabbit reticulocytelysate and incubated for 2 hours. The luciferase activity was measured by diluting 5 times the solution in HEPES and adding 5 μL of the solution in luciferase substrate (50 μL of Luciferase Assay System—Promega E1501 diluted in HEPES). The bioluminescence was reading with Envision Perkin Elmer.
The percentage of activity (x) was calculated by using the following equation: x=[(A−B)/(C−B)]×100, where (A) is the luciferase luminescence in presence of compounds of the invention, (B) in absence of HSP110 and (C) in presence of DMSO (Control). The percentage of total folding HSP110-promoted (mean=36%) was calculated considering as 100% the luminescence of luciferase incubated with HSP110 without heat shock. The IC50 were calculated from the dose-response curves, which were fitted by GraphPrism (Equation: Y=100/(1+10^((Log IC50−X)*HillSlope)).

phosphorylated STAT3 = test: P-STAT3 level in SW480 cells (immunoblot quantification); type: cell-based, human; settings: 10 μM, 48 h, normalized by actin
Experimental: Results for SW480 cells treated during 48 h with non-relevant antibody (called NT), compound 52, compound 33, compound 51 and comparative compound 61 at 10 μM, and sh110 cells correspond to the third fourth, fifth, sixth and last columns from the left to the right.
FIG. 3B: Quantification of P-STAT3 level (in percentage) normalized by actin. […] (Ordinate: Percentage of P-STAT3 level (scale 50)
Immunoprecipitation test were realized on human colorectal cancer cells (SW480 and HCT116 cell lines), using a control depleted in HSP110 called Sh110 and a not depleted cells in HSP110. STAT3 phosphorylation is then […] by compounds 33 and 52. Depletion of HSP110 in the negative control blocked the phosphorylation of STAT3 without affecting STAT3 overall levels (FIGS. 2 and 3).

CT26 cells = test: Flow cytometric analysis of cell death (Annexin V / 7-AAD) in CT26 cells; type: cell-based, mouse; settings: 10 μM, 96 h
Experimental: FIG. 5A: Flow cytometric analysis of cell death in CT26 cells treated with the compound 33 (at the bottom left), compound 52 (at the bottom middle), comparative compound 61 (at the bottom right) at 10 μM during 96 h compared with Control (DMSO) (at the top left), and Cisplatin (at the top middle and top right). Live cells were double negative for 7-AAD (Y axis) and Annexin V (X axis), early apoptotic cells were positive for Annexin V, late apoptotic cells were positive for Annexin V and 7-AAD ([…]) and dead cells were positive for 7-AAD only.
FIG. 5B: Quantification of cell viability (in percentage) from flow cytometry data are represented (Control, cells, compounds 33, 52 and 61 from the left to the right bars). (Abscissa Negativity of 7-AAD; Ordinate Negativity of Annexin V).
We then analyzed cell death in CT26 cells treated with 10 μM during 96 h of compounds 33, 52 and 61 by flow cytometry. Cells were also treated with a well know anti-cancer compound, called cisplatin. Cells were marked for 7-aminoactinomycin D, which exclusively bind on death cells and for Annexin V, a well-known indicators of early stage apoptosis, thanks to its ability to bind to phosphatidylserine.

HSP110/Myd88 interaction = target: T2, HSP110/Myd88 interaction (Homo sapiens, UniProt Q92598); test: Immunoprecipitation of HSP110/Myd88 in DLBCL cell line; type: cell-based; settings: IP Myd88, Western Blot
T2 construct: endogenous in cells
From the text: FIG. 10A: Immunoprecipitation (IP) analysis of HSP110 (first line), Myd88 (second line), heavy chains (third line) and actin (fourth line) in large B cell lymphoma cell lines (DLBCL).
Left part of FIG. 10A (“Inputs”): treated with (from left to right column of the left part of FIG. 10A) DMSO, compound 52 (5052), compound 33 (5033) and compound 61 (5061) (Negative control);
Middle part of FIG. 10A (“IP Myd88”): treated with (from left to right column of the middle part of FIG. 10A) DMSO, compound 52, compound 33 and compound 61 (as the negative control); Myd88 was immunoprecipitated with an antibody specifically directed against Myd88.
MyD88 was immuno-precipitated from the cell line which has been non-treated or treated with the HSP110 inhibitors.

DLBCL cell lines = test: Viability of B-cell lymphoma cell lines (Annexin V/7AAD staining); type: cell-based, human; settings: 96 h, 5-40 μM
From the text: FIG. 10E: Viability of various B-cell lymphoma cell lines treated with increasing concentrations of compound 33 (inhibitor 33).
Groups of bars, from the left to the right of FIG. 10E: (i) OCI-Ly10 human diffuse large B-cell lymphoma cell line, (ii) HBL1 human diffuse large B-cell lymphoma cell line, (iii) TMD8 human B cell lymphoma cell line, (iv) OCI-Ly3 human large B-cell lymphoma cell line and (v) U2932 human diffuse large B-cell lymphoma cell line.
In each group of bars, from the left to the right: (i) Control, without treatment, (ii) Compound 33 at 5 μM, (iii) Compound 33 at 10 μM, (iv) Compound 33 at 20 μM, (v) Compound 33 at 30 μM, (vi) Compound 33 at 40 μM.
FIG. 10F: Viability of various B-cell lymphoma cell lines treated with increasing concentrations of compound 52 (inhibitor 52).
Groups of bars, from the left to the right of FIG. 10F: (i) TMD8 human B cell lymphoma cell line and (ii) OCI-Ly3 human large B-cell lymphoma cell line.
In each group of bars, from the left to the right: (i) Control, without treatment (0 μM), (ii) Compound 52 at 5 μM, (iii) Compound 52 at 10 μM, (iv) Compound 52 at 20 μM, (v) Compound 52 at 30 μM, (vi) Compound 52 at 40 μM.

T1 sequence (Q92598 whole entry, looked up): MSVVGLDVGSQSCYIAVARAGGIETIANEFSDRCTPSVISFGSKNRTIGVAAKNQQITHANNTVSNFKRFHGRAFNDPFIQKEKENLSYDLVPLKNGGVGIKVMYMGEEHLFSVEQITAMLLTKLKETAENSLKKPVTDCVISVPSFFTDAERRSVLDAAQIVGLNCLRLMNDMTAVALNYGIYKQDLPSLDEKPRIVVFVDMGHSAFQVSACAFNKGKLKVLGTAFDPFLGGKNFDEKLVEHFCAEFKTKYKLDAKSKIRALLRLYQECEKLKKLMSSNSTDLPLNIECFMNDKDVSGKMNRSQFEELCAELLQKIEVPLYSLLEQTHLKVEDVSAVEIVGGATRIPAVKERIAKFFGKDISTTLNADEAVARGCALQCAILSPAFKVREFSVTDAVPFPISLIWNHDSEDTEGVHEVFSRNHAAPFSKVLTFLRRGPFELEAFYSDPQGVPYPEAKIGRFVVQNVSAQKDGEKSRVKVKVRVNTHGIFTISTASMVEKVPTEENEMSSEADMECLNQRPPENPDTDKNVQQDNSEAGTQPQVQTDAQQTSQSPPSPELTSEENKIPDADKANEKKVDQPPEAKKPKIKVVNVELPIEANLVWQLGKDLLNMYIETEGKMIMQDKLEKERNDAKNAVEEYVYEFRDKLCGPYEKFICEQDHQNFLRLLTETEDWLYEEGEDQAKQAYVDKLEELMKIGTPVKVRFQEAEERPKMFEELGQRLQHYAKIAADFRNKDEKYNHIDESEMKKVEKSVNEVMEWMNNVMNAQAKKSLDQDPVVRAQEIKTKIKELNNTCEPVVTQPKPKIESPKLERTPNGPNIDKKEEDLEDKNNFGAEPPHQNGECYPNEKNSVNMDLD
T2 sequence (Q92598 2-858 limits assumed): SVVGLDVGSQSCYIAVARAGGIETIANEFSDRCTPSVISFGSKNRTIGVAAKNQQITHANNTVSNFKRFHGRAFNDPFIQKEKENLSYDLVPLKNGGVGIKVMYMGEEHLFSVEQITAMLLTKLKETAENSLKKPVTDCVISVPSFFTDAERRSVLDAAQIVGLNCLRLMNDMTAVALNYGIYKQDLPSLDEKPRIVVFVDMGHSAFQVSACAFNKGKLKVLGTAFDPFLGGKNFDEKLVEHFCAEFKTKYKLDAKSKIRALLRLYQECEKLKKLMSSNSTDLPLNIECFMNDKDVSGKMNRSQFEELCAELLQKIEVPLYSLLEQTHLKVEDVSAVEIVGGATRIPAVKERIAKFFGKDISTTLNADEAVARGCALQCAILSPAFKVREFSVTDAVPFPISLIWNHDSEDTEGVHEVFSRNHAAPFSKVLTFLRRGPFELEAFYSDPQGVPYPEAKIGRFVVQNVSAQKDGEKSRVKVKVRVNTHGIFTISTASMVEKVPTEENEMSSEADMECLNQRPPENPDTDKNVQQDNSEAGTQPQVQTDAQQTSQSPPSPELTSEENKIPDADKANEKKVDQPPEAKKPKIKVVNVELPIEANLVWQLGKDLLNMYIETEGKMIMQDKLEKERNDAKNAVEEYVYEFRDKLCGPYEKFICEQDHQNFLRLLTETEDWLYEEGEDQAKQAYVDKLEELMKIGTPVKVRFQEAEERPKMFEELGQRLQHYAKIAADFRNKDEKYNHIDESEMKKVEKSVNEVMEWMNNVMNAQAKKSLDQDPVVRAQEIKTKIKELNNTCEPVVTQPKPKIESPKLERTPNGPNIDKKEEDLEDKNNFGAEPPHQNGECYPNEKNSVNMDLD

Row | Structure (SMILES) | IC50 (human protein HSP110) | P-STAT3 level (phosphorylated STAT3) | cell death / apoptosis (Annexin V and 7-AAD marking) (CT26 cells) | HSP110/Myd88 interaction (HSP110/Myd88 interaction) | viability of DLBCL cell lines (DLBCL cell lines; OCI-Ly10, HBL1, TMD8, OCI-Ly3 and U2932) | viability of DLBCL cell lines (DLBCL cell lines; TMD8 and OCI-Ly3)
1 | COc1ccc(-c2ncc(-c3ncc(-c4cc(OC)c(OC)c(OC)c4)cc3/C=C/c3ccccc3)cc2C)cc1OC [compound 33, (E)-6′-(3,4-Dimethoxyphenyl)-5′-methyl-3-styryl-5-(3,4,5-trimethoxyphenyl)-2,3′-bipyridine] | 58.3 ± 1.7 µM | ~60% | don't seem to be marked; also recorded: does not allow detecting significally apoptosis | abrogate | reduces the viability | –
2 | COc1cc(-c2cnc(-c3cnc(-c4cc(OC)c(OC)c(OC)c4)c(C)c3)c(/C=C/c3ccccc3)c2)cc(OC)c1OC [compound 52, (E)-5′-Methyl-3-styryl-5,6′-bis(3,4,5-trimethoxyphenyl)-2,3′-bipyridine] | 86 ± 1.5 µM | about 20% | don't seem to be marked; also recorded: does not allow detecting significally apoptosis | abrogate | – | reduces the viability
